pEC50: −log10 of the molar value. Where two headings read alike, the source gives them in different places. Starred links: 1 amine or outer side, 2 acyl side, 3 side chain; linkers in the order of their positions; H or OH if unused. Non-standard residues stand in square brackets, D forms with d. Residues, ends and D or L forms follow the SMILES beside them. ξ: configuration not given here. *: point of attachment. dBip = N[C@H](Cc1ccc(-c2ccccc2)cc1)C(=O)O; Oic = O=C(O)[C@@H]1C[C@@H]2CCCC[C@@H]2N1; Phe(4-Cl) = N[C@@H](Cc1ccc(Cl)cc1)C(=O)O; Phe(4-I) = N[C@@H](Cc1ccc(I)cc1)C(=O)O; γGlu = O=C(O)[C@H](CCC(=O)[*:2])N[*:1]; NMeR = CN[C@@H](CCCNC(=N)N)C(=O)O; Tridecanoyl = CCCCCCCCCCCCC(=O)*; hArg = N=C(N)NCCCC[C@H](N)C(=O)O; Cha = N[C@@H](CC1CCCCC1)C(=O)O; NMeL = CN[C@@H](CC(C)C)C(=O)O; Pip = O=C(O)[C@@H]1CCCCN1; Nle = CCCC[C@H](N)C(=O)O; Orn = NCCC[C@H](N)C(=O)O; ξαMeP = CC1(C(=O)O)CCCN1; ξβ3hV = CC(C)C(N)CC(=O)O; AEEA = NCCOCCOCC(=O)O; Aib = CC(C)(N)C(=O)O
How the values were obtained:
rat APJ receptor = molecular target: T1, rat APJ receptor (Rattus norvegicus, UniProt Q9JHG3); experiment: [35S] GTPγS assay, rat APJ receptor; format: biochemical; conditions: read-out: EC50 Rat APJ Receptor
T1 construct: expressed in transfected cells
T1 sequence (Q9JHG3 1-377): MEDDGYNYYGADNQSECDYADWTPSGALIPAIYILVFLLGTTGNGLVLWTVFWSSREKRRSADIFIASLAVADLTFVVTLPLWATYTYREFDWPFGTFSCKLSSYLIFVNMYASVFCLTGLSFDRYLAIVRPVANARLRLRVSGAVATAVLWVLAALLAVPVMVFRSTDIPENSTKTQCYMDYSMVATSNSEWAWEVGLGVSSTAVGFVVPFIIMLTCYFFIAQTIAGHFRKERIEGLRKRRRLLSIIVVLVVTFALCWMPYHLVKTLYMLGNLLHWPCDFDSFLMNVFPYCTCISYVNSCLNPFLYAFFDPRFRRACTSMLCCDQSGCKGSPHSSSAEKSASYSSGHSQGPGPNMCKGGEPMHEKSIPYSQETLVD
Description: The membranes were incubated with modified peptides in the assay buffer. […] Bound [^35S] GTPγS was separated from free radiolabel by filtration. The filter bound radioactivity was determined by liquid scintillation counting.

[1] = In vitro stability in rat plasma; format: in vitro ADME
Description: (§1) Apelin peptides were spiked into rat plasma, liver homogenate, and kidney homogenate, which were obtained from commercial sources, to a final concentration of 5 μM. The samples were then incubated at 37° C. over a period of 4 hr. […] In a typical experiment, an aliquot of 100 μL of sample was taken from the incubation vial, followed by addition of 300 μL of MeOH containing internal standard. The quenched sample was centrifuged at 5500 g for 15 min after 15 min vortex in room temperature. The supernatant was then analyzed by high resolution LC-MS. […] In vitro plasma, […], and kidney stability results are shown below in Table 14.

[2] = In vitro stability in rat liver homogenate; format: in vitro ADME; conditions: tissue homogenate
Description: as §1

SMILES | pEC50 (rat APJ receptor; rat APJ receptor) | pEC50 (rat APJ receptor) | remaining at 4 h, 5 μM [1] | remaining at 4 h, 5 μM [2]
CSCC[C@H](NC(=O)[C@@H]1CCCN1C(=O)CNC(=O)[C@H](CCCCN)NC(=O)[C@H](Cc1c[nH]cn1)NC(=O)[C@H](CO)NC(=O)[C@H](CC(C)C)NC(=O)[C@H](CCCNC(=N)N)NC(=O)[C@@H]1CCCN1C(=O)[C@H](CCCNC(=N)N)NC(=O)[C@H](CCC(N)=O)NC(=O)[C@H](CCCNC(=N)N)NC(=O)[C@H](CCCNC(=N)N)NC(=O)[C@H](Cc1ccccc1)NC(=O)[C@@H](N)CCCCN)C(=O)N1CCC[C@H]1C(=O)O [compound 12] | 8.24 |  |  | 
CC(=O)N[C@@H](CCCCNC(=N)N)C(=O)N[C@@H](CCCCNC(=N)N)C(=O)N[C@@H](CCC(N)=O)C(=O)N[C@@H](CCCCNC(=N)N)C(=O)N1[C@H](C(=O)N[C@H](CCCNC(=N)N)C(=O)N(C)[C@@H](CC(C)C)C(=O)N[C@@H](CO)C(=O)N[C@@H](Cc2c[nH]cn2)C(=O)N[C@@H](CCCCN)C(=O)NCC(=O)N2[C@H](C(=O)N[C@@H](Cc3ccc(I)cc3)C(=O)N3CCC[C@H]3C(=O)N[C@H](Cc3ccc(-c4ccccc4)cc3)C(=O)O)C[C@@H]3CCCC[C@@H]32)C[C@@H]2CCCC[C@@H]21 [compound 21] (Ac-[hArg][hArg]Q[hArg][Oic][dR][NMeL]SHKG[Oic][Phe(4-I)]P[dBip]-OH) |  | 8.74 |  | 
CCCC[C@H](NC(=O)[C@@H]1CCCN1C(=O)CNC(=O)[C@H](CCCCN)NC(=O)[C@H](Cc1c[nH]cn1)NC(=O)[C@H](CO)NC(=O)[C@H](CC1CCCCC1)NC(=O)[C@H](CCCCNC(=N)N)NC(=O)[C@@H]1CCCN1C(=O)[C@H](CCCNC(=N)N)NC(=O)[C@H](CCC(N)=O)NC(=O)[C@H](CCCCNC(=N)N)NC(=O)[C@H](CCCCNC(=N)N)NC(=O)[C@H](Cc1ccccc1)NC(=O)[C@H](CCCN)NC(C)=O)C(=O)N[C@@H](Cc1ccc(Cl)cc1)C(=O)O [compound 48] (Ac-[Orn]F[hArg][hArg]QRP[hArg][Cha]SHKGP[Nle][Phe(4-Cl)]-OH) |  | 9.31 |  | 
CCCC[C@H](NC(=O)[C@@H]1CCCN1C(=O)CNC(=O)[C@H](CCCCN)NC(=O)[C@H](Cc1c[nH]cn1)NC(=O)[C@H](CO)NC(=O)[C@H](CC(C)C)N(C)C(=O)[C@H](CCCNC(=N)N)NC(=O)[C@@H]1CCCN1C(=O)[C@H](CCCNC(=N)N)NC(=O)[C@H](CCC(N)=O)NC(=O)[C@H](CCCNC(=N)N)NC(C)=O)C(=O)N1CCC[C@H]1C(=O)N[C@@H](Cc1ccc(Cl)cc1)C(=O)O [compound 64] (Ac-RQRPR[NMeL]SHKGP[Nle]P[Phe(4-Cl)]-OH) | 9.39 |  |  | 
CCCC[C@H](NC(=O)[C@@H]1CCCN1C(=O)CNC(=O)[C@H](CCCCN)NC(=O)[C@H](Cc1c[nH]cn1)NC(=O)[C@H](CO)NC(=O)[C@H](CC(C)C)N(C)C(=O)[C@H](CCCNC(=N)N)N(C)C(=O)[C@@H]1CCCN1C(=O)[C@H](CCCNC(=N)N)NC(=O)[C@H](CCC(N)=O)NC(=O)[C@H](CCCNC(=N)N)NC(C)=O)C(=O)N1CCC[C@H]1C(=O)N[C@@H](Cc1ccc(Cl)cc1)C(=O)O [compound 67] (Ac-RQRP[NMeR][NMeL]SHKGP[Nle]P[Phe(4-Cl)]-OH) | 8.85 |  |  | 
CCCCCCCCCCCCC(=O)N[C@@H](CCC(=O)NCCOCCOCC(=O)NCCOCCOCC(=O)N[C@@H](CCC(N)=O)C(=O)N[C@@H](CCCNC(=N)N)C(=O)N[C@@H](CCC(=O)O)C(=O)N(C)[C@@H](CCCNC(=N)N)C(=O)N[C@@H](CC(C)C)C(=O)N[C@@H](CO)C(=O)N[C@@H](Cc1c[nH]cn1)C(=O)N[C@@H](CCCCN)C(=O)NCC(=O)N1CCC[C@H]1C(=O)N[C@@H](CCCC)C(=O)N1CCC[C@H]1C(=O)N[C@@H](Cc1ccc(Cl)cc1)C(=O)O)C(=O)O [compound 476] |  |  | 40% | < 1%
CCCCCCCCCCCCC(=O)N[C@@H](CCC(=O)NCCOCCOCC(=O)NCCOCCOCC(=O)N[C@@H](CCC(N)=O)C(=O)N[C@@H](CCCNC(=N)N)C(=O)N1CCC[C@@]1(C)C(=O)N[C@@H](CCCCNC(=N)N)C(=O)N[C@@](C)(CC(C)C)C(=O)N[C@@H](CO)C(=O)N[C@@H](Cc1c[nH]cn1)C(=O)N[C@@H](CCCCN)C(=O)NCC(=O)N1CCC[C@H]1C(=O)N[C@@H](CCCC)C(=O)N1CCC[C@H]1C(=O)N[C@@H](Cc1ccc(Cl)cc1)C(=O)O)C(=O)O [compound 482] |  |  | 62% | < 1%
CCCCCCCCCCCCC(=O)N[C@@H](CCC(=O)NCCOCCOCC(=O)NCCOCCOCC(=O)N[C@@H](CCC(N)=O)C(=O)N[C@@H](CCCCNC(=N)N)C(=O)N1CCC[C@H]1C(=O)N(C)[C@@H](CCCCNC(=N)N)C(=O)N[C@@H](CC(C)C)C(=O)N[C@@H](CO)C(=O)N[C@@H](Cc1c[nH]cn1)C(=O)N[C@@H](CCCCN)C(=O)NCC(=O)N1CCC[C@H]1C(=O)N[C@@H](CCCC)C(=O)N1CCC[C@H]1C(=O)N[C@@H](Cc1ccc(Cl)cc1)C(=O)O)C(=O)O [compound 483] |  |  | 37% | < 1%
CCCCCCCCCCCCC(=O)N[C@@H](CCC(=O)NCCOCCOCC(=O)NCCOCCOCC(=O)N[C@@H](CCC(N)=O)C(=O)N(C)[C@@H](CCCCNC(=N)N)C(=O)N1CCC[C@H]1C(=O)N(C)[C@@H](CCCNC(=N)N)C(=O)N[C@@](C)(CC(C)C)C(=O)N[C@@H](CO)C(=O)N[C@@H](Cc1c[nH]cn1)C(=O)N[C@@H](CCCCN)C(=O)NCC(=O)N1CCC[C@H]1C(=O)N[C@@H](CCCC)C(=O)N1CCC[C@H]1C(=O)N[C@@H](Cc1ccc(Cl)cc1)C(=O)O)C(=O)O [compound 484] |  |  | 79% | < 1%
CCCCCCCCCCCCC(=O)N[C@@H](CCC(=O)NCCOCCOCC(=O)NCCOCCOCC(=O)N[C@@H](CCC(N)=O)C(=O)N[C@H](CCCNC(=N)N)C(=O)N1CCC[C@H]1C(=O)N[C@@H](CCCCNC(=N)N)C(=O)N[C@@](C)(CC(C)C)C(=O)N[C@@H](CO)C(=O)N[C@@H](Cc1c[nH]cn1)C(=O)N[C@@H](CCCCN)C(=O)NCC(=O)N1CCC[C@H]1C(=O)N[C@@H](CCCC)C(=O)N1CCC[C@H]1C(=O)N[C@@H](Cc1ccc(Cl)cc1)C(=O)O)C(=O)O [compound 485] |  |  | 74% | < 1%
CCCCCCCCCCCCCCC(=O)N[C@@H](CCC(=O)NCCOCCOCC(=O)NCCOCCOCC(=O)N[C@@H](CCC(N)=O)C(=O)N[C@@H](CCCNC(=N)N)C(=O)N1CCC[C@H]1C(=O)N(C)[C@@H](CCCNC(=N)N)C(=O)N[C@@H](CC(C)C)C(=O)N[C@@H](CO)C(=O)N[C@@H](Cc1c[nH]cn1)C(=O)N[C@@H](CCCCN)C(=O)NCC(=O)N1CCC[C@H]1C(=O)N[C@@H](CCCC)C(=O)N1CCC[C@H]1C(=O)N[C@@H](Cc1ccc(Cl)cc1)C(=O)O)C(=O)O [compound 495] |  |  | 75% | < 1%
CCCCCCCCCCCCC(=O)N[C@@H](CCC(=O)NCCOCCOCC(=O)NCCOCCOCC(=O)N[C@H](CCC(N)=O)C(=O)N[C@@H](CCCNC(=N)N)C(=O)N1CCC[C@H]1C(=O)N(C)[C@@H](CCCNC(=N)N)C(=O)N[C@@H](CC1CCCCC1)C(=O)N[C@@H](CO)C(=O)N[C@@H](Cc1c[nH]cn1)C(=O)N[C@@H](CCCCN)C(=O)NCC(=O)N1CCCC[C@H]1C(=O)N[C@@H](CCCC)C(=O)NC(C)(C)C(=O)N[C@@H](Cc1ccc(Cl)cc1)C(=O)O)C(=O)O [compound 499] ({Tridecanoyl-γGlu-AEEA-AEEA}-[dQ]RP[NMeR][Cha]SHKG[Pip][Nle][Aib][Phe(4-Cl)]-OH) |  |  | > 90% | < 1%
CCCCCCCCCCCCC(=O)N[C@@H](CCC(=O)NCCOCCOCC(=O)NCCOCCOCC(=O)N[C@H](CCC(N)=O)C(=O)N[C@@H](CCCNC(=N)N)C(=O)N1CCCC1(C)C(=O)N[C@@H](CCCCNC(=N)N)C(=O)NC(CC(=O)N[C@@H](CO)C(=O)N[C@@H](Cc1c[nH]cn1)C(=O)N[C@@H](CCCCN)C(=O)NCC(=O)N1CCCC[C@H]1C(=O)N[C@@H](CCCC)C(=O)N[C@@H](Cc1ccc(Cl)cc1)C(=O)O)C(C)C)C(=O)O (stereo partly drawn) [compound 501] ({Tridecanoyl-γGlu-AEEA-AEEA}-[dQ]R[ξαMeP][hArg][ξβ3hV]SHKG[Pip][Nle][Phe(4-Cl)]-OH) |  |  | > 90% | < 1%
CCCC[C@H](NC(=O)[C@@H]1CCCN1C(=O)CNC(=O)[C@H](CCCCN)NC(=O)[C@H](Cc1c[nH]cn1)NC(=O)[C@H](CO)NC(=O)[C@H](CC(C)C)NC(=O)[C@H](CCCNC(=N)N)N(C)C(=O)[C@@H]1CCCN1C(=O)[C@H](CCCNC(=N)N)NC(=O)[C@H](CCC(N)=O)NC(=O)COCCOCCNC(=O)COCCOCCNC(=O)CC[C@H](NC(=O)CCCCCCC(=O)O)C(=O)O)C(=O)N1CCC[C@H]1C(=O)N[C@@H](Cc1ccc(Cl)cc1)C(=O)O [compound 508] |  |  | < 1% | < 1%
CCCCCCCCCCCCC(=O)N[C@@H](CCC(=O)NCCOCCOCC(=O)NCCOCCOCC(=O)N[C@H](CCC(N)=O)C(=O)N[C@@H](CCCNC(=N)N)C(=O)N1CCC[C@H]1C(=O)N(C)[C@@H](CCCNC(=N)N)C(=O)N[C@@](C)(CC(C)C)C(=O)N[C@@H](CO)C(=O)N[C@@H](Cc1c[nH]cn1)C(=O)N[C@@H](CCCCN)C(=O)NCC(=O)N1CCCC[C@H]1C(=O)N[C@@H](CCCC)C(=O)N1CCC[C@@]1(C)C(=O)N[C@@H](Cc1ccc(Cl)cc1)C(=O)O)C(=O)O [compound 555] |  |  | > 90% | < 1%

Source: US11807693B2 (priority 2014, dated 2023)
